According to publication PMC7933930, “Development of a small molecule that corrects misfolding and increases secretion of Z α1‐antitrypsin” (EMBO Molecular Medicine, 2021):

Columns and labels:
NK1 (TACR1) = NK1 (TACR1) (Homo sapiens, UniProt P25103); test: Off‐target panel: NK1 (TACR1) (DRX); type: cell-based; settings: Antagonist, read-out: Mean (PXC50)
Experimental: (§1) GSK716 selectivity and PK properties were profiled in order to investigate the suitability of GSK716 for progression into in vivo studies and the potential for taking it forward as a clinical candidate for testing in humans. Since GSK716 results in loss of inhibitory activity of α1‐antitrypsin, the effect of the compound was assessed on other closely related serpins. […] Furthermore, there were no off‐target effects in a panel of assays considered predictive of known safety liabilities that precluded further development of GSK716 (Table EV1).

[1] = tested on: Z α1‐antitrypsin polymers in iPSC‐derived human hepatocytes (ZZ genotype); test: Z α1‐antitrypsin polymerisation in ZZ iPSC‐derived human hepatocytes; type: cell-based; settings: Hepatocyte, n = 16, read-out: mean pIC50, polymerisation (converted)
NULL CHO-K1 = test: Off‐target panel: NULL CHO-K1 Agonist (DRX); type: cell-based; settings: Cricetulus griseus, read-out: Mean (PXC50)
Experimental: as §1

OATP1B1 = OATP1B1 (Homo sapiens, UniProt Q9Y6L6); test: Off‐target panel: OATP1B1; type: in vitro ADME; settings: Inhibition, read-out: Mean (PXC50)
Experimental: as §1

α1 nicotinic AChR = α1 nicotinic AChR (Homo sapiens, UniProt P02708); test: Off‐target panel: α1 nicotinic AChR; type: cell-based
Experimental: as §1

Cycloxygenase2 (COX2) = Cycloxygenase2 (COX2) (Homo sapiens, UniProt P35354); test: Off‐target panel: Cycloxygenase2 (COX2); type: biochemical; settings: Inhibition, read-out: Mean (PXC50)
Experimental: as §1

Acetyl- cholinesterase = Acetyl- cholinesterase (Homo sapiens, UniProt P22303); test: Off‐target panel: Acetyl- cholinesterase; type: biochemical
Experimental: as §1

NaV1.5 = NaV1.5 (Homo sapiens, UniProt Q14524); test: Off‐target panel: NaV1.5 (IonWorks); type: cell-based
Experimental: as §1

Cannabinoid CB2 = Cannabinoid CB2 (Homo sapiens, UniProt P34972); test: Off‐target panel: Cannabinoid CB2; type: cell-based
Experimental: as §1

Muscarinic M2 = biological target: T1, Muscarinic M2 (Homo sapiens, UniProt P08172); test: Off‐target panel: Muscarinic M2; type: cell-based
T1 sequence (P08172 1-466): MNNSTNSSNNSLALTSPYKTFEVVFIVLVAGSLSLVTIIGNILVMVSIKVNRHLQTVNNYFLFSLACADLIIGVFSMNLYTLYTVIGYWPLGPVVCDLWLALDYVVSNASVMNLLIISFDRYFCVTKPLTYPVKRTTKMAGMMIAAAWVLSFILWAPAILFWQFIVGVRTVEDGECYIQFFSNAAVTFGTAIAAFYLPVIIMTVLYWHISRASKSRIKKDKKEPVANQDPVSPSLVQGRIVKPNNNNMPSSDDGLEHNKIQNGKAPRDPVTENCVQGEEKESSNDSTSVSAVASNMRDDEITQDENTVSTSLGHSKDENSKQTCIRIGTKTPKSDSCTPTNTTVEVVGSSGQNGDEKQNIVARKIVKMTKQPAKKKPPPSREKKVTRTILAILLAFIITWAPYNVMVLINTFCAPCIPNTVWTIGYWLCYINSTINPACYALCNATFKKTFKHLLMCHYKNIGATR
Experimental: as §1

mouse hepatocytes = test: Hepatocyte clearance, mouse; type: in vitro ADME
Experimental: Williams E media supplemented with 2 mM L‐glutamine and 25 mM HEPES and test compound (final compound concentration 0.5 µM; final DMSO concentration 0.25% v/v) were preincubated at 37°C prior to the addition of a suspension of cryopreserved pooled hepatocytes (final cell density 0.5 × 10^6 viable cells/ml) to initiate the reaction. The final incubation volume was 500 µl. The reactions were stopped by transferring 50 µl of incubate to 100 µl acetonitrile containing internal standard at the appropriate time points (0, 5, 10, 20, 40 and 60 min, 0, 10, 20, 40, 60 and 120 min or 0, 20, 40, 60, 120 and 240 min). The control (lysed cells or vehicle) was incubated for 60, 120 or 240 min only. The termination plates were centrifuged at 2,500 rpm at 4°C for 30 min to precipitate the protein. Following protein precipitation, the sample supernatants were analysed by LC‐MS/MS. From a plot of loge peak area ratio (compound peak area/internal standard peak area) against time, the gradient of the line was determined and half‐life (t½) and intrinsic clearance (CLint) were calculated.

Bile Salt Export Pump = Bile Salt Export Pump (Homo sapiens, UniProt O95342); test: Off‐target panel: Bile Salt Export Pump; type: in vitro ADME; settings: Inhibition, read-out: Mean (PXC50) (converted)
Experimental: as §1

Z α1‐antitrypsin = Z α1‐antitrypsin (Homo sapiens, UniProt P01009, E366K); test: Rapid refolding by snap dilution, non‐denaturing PAGE; type: biochemical; set-up: purified from the plasma of Z α1‐antitrypsin homozygotes; from tissue; host or cells: human plasma of Z α1-antitrypsin homozygotes; settings: snap dilution from denaturant
serum albumin = test: Circulating serum albumin in Z α1‐antitrypsin transgenic mice; type: in vivo, mouse; settings: after 5 days of dosing
Experimental: A significant fraction of the total Z α1‐antitrypsin in the circulation is in the polymeric conformation (Tan et al, 2014). There are no antibodies that are specific for monomeric Z α1‐antitrypsin and so to directly determine its concentration, a deconvolution method was developed based on immunoassays with antibodies for either total or polymeric α1‐antitrypsin, and calibration curves with purified monomeric and polymeric Z α1‐antitrypsin. Monomeric Z α1‐antitrypsin was measured in plasma samples following 6 days of dosing, and levels were normalised to each animals’ pre‐dose control levels to account for the natural variation of Z α1‐antitrypsin between animals. […] Total drug levels and changes in Z α1‐antitrypsin following 3 days of dosing were indistinguishable from those following 6 days of dosing. There was no effect on circulating serum albumin after 5 days of dosing which provides evidence that GSK716 is specific for Z α1‐antitrypsin. Moreover, the effects are not mediated by metabolites of GSK716 as the major metabolites have much reduced or no binding to α1‐antitrypsin.

Aurora B (STK12) = Aurora B (STK12) (Homo sapiens, UniProt Q96GD4); test: Off‐target panel: Aurora B (STK12); type: biochemical; settings: Inhibition, read-out: Mean (PXC50)
Experimental: as §1

Chain of α1 nicotinic AChR (P02708 21-457): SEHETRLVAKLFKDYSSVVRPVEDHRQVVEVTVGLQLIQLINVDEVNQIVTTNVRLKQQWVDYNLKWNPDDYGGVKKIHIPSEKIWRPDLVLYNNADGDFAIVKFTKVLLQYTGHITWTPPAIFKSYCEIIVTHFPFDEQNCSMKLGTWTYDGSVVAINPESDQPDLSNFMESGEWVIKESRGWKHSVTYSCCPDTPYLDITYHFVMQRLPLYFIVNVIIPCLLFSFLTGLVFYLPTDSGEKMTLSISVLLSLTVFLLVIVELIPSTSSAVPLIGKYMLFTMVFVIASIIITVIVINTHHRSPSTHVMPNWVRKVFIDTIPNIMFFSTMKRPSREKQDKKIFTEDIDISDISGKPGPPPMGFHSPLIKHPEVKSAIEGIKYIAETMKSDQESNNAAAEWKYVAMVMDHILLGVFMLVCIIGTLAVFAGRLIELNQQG
Chain of α1 nicotinic AChR (P11230 24-501 partner): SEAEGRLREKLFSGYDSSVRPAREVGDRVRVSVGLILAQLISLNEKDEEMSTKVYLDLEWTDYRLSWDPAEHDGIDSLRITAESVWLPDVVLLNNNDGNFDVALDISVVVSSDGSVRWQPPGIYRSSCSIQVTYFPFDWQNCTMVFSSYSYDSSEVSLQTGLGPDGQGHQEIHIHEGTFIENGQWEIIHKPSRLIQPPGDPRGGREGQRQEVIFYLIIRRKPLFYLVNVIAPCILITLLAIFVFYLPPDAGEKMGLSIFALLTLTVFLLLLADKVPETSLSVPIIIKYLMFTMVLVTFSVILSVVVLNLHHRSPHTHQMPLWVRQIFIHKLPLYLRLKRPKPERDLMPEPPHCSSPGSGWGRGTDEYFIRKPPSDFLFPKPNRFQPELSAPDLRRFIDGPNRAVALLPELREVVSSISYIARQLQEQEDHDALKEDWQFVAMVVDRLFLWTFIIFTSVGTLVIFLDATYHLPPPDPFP
Chain of α1 nicotinic AChR (Q07001 22-517 partner): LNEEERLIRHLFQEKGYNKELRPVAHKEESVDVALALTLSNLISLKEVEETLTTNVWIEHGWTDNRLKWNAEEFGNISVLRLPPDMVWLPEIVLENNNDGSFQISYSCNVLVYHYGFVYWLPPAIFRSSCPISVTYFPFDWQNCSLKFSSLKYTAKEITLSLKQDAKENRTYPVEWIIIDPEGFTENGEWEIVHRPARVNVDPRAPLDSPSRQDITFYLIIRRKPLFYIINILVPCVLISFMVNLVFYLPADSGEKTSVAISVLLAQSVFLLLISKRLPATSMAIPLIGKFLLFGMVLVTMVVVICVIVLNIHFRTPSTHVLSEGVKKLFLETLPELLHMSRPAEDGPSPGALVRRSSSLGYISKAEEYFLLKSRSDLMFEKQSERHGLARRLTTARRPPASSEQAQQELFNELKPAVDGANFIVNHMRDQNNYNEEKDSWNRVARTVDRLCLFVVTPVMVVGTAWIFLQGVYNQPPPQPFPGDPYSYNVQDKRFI
Chain of NK1 (TACR1) (P25103 whole entry, species assumed): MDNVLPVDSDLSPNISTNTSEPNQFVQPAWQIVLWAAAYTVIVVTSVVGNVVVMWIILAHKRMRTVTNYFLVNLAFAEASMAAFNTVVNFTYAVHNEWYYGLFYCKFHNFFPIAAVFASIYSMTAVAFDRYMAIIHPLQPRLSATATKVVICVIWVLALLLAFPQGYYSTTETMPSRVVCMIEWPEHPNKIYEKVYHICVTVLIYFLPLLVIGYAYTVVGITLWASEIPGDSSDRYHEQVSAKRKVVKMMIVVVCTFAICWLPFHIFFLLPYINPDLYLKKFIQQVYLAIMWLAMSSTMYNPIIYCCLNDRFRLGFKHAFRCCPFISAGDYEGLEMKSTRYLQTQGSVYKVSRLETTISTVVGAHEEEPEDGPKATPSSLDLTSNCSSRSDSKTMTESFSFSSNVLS
Chain of NaV1.5 (Q14524 whole entry): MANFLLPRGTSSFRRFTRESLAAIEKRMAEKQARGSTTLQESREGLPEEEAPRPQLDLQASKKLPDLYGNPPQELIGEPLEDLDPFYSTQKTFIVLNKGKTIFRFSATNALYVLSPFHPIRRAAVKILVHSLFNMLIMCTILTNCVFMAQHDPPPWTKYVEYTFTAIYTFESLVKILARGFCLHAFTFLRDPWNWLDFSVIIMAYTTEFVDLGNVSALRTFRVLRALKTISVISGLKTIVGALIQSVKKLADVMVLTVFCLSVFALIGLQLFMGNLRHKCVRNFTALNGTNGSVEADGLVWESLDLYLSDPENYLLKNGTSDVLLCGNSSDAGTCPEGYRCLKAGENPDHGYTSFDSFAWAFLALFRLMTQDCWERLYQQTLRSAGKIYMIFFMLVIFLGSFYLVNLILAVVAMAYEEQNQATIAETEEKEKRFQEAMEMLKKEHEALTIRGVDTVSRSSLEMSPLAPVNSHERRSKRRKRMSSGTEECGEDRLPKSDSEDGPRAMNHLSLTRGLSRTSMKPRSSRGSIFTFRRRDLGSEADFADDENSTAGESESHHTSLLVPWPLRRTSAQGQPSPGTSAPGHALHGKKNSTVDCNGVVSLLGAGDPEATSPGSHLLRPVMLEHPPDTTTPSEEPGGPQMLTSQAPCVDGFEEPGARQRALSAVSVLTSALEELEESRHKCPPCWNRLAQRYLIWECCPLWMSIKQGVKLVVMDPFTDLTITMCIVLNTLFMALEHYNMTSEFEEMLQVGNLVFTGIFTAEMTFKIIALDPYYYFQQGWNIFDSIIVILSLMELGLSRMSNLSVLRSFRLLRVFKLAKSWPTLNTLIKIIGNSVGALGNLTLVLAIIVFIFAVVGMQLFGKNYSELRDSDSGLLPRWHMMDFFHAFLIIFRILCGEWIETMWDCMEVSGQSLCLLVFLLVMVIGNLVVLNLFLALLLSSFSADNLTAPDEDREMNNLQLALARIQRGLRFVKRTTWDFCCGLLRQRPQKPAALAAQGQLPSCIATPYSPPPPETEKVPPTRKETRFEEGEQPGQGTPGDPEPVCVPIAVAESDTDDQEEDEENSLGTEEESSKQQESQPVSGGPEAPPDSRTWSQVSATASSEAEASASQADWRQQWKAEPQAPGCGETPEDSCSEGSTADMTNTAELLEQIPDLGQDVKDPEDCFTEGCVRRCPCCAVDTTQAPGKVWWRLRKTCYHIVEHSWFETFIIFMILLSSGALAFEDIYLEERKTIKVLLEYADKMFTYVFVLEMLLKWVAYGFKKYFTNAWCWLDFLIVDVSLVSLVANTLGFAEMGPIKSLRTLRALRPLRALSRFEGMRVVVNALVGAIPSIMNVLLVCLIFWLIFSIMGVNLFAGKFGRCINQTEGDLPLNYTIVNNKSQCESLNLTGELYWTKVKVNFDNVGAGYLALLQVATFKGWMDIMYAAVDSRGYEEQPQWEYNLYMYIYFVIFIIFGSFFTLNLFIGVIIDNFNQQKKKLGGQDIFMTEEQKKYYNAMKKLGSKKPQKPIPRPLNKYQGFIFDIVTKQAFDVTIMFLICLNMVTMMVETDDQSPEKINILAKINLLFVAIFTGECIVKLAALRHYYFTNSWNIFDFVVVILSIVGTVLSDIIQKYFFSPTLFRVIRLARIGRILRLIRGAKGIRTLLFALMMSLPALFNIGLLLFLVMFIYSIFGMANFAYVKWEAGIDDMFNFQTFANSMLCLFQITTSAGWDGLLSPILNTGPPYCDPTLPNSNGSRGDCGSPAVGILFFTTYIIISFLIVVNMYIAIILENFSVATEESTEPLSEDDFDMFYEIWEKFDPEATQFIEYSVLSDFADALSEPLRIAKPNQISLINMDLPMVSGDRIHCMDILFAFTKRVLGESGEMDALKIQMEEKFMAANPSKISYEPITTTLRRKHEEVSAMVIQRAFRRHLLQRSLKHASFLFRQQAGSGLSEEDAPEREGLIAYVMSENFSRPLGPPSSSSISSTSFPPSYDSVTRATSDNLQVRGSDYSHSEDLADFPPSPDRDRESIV
Chain of Z α1‐antitrypsin (P01009 25-418 E366K): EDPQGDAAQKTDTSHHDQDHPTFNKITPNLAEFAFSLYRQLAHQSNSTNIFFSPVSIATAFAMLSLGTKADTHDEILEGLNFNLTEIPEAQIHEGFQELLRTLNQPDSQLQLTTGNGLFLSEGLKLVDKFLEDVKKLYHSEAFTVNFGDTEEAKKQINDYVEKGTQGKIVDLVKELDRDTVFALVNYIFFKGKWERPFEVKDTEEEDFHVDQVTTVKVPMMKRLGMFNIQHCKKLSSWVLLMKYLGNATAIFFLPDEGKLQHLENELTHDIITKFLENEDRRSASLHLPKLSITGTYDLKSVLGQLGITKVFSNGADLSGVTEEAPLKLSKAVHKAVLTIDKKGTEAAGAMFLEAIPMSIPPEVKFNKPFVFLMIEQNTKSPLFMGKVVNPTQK
Chain of Cannabinoid CB2 (P34972 whole entry): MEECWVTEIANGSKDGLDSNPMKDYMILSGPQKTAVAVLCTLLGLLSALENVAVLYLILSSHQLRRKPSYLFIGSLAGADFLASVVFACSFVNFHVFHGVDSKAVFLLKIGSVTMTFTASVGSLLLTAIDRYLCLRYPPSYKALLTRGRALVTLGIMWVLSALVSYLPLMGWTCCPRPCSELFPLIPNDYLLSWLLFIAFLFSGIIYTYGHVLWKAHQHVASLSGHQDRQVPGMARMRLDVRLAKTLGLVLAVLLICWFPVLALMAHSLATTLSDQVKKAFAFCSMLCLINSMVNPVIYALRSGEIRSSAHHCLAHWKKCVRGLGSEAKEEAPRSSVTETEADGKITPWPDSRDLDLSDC
Chain of Aurora B (STK12) (Q96GD4 whole entry, species assumed): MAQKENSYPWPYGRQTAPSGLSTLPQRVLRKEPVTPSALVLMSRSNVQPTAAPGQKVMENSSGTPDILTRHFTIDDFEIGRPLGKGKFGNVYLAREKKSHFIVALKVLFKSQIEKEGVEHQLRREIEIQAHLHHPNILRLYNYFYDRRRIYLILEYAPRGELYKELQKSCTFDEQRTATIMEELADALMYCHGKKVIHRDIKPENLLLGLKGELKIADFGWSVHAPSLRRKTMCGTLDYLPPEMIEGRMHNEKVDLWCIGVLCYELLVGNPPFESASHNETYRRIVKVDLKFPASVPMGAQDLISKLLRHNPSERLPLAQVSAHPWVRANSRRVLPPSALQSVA

CCC[C@@H](NC(=O)c1cccc2c1CC(=O)N2)[C@@H](O)c1cccc(F)c1C [GSK716]
IC50 (NK1 (TACR1)): > 25.1 µM
IC50 [1]: 0.398 µM
EC50 (NULL CHO-K1): > 100 µM
IC50 (OATP1B1): > 50.1 µM
EC50 (α1 nicotinic AChR): > 50.1 µM
IC50 (α1 nicotinic AChR): 31.6 µM
IC50 (Cycloxygenase2 (COX2)): > 100 µM
IC50 (Acetyl- cholinesterase): 100 µM
IC50 (NaV1.5): 79.4 µM
EC50 (Cannabinoid CB2): > 100 µM
EC50 (Muscarinic M2): > 50.1 µM
IC50 (Muscarinic M2): > 50.1 µM
metabolic clearance in mouse hepatocytes (mouse hepatocytes): 4.56 ml/min/g tissue
IC50 (Bile Salt Export Pump): 100 µM
misfolded by‐product of M* on refolding of the Z variant (Z α1‐antitrypsin): corrected at stoichiometric concentrations and above
effect on circulating serum albumin (serum albumin): no effect
IC50 (Aurora B (STK12)): > 31.6 µM
